# System: human childhood brain tumor cell lines (PFSK-1)
# Assay: Growth inhibitory activity against PFSK-1 cells (WST-8, Cell Counting Kit-8)
# Format: cell-based
# Settings: Homo sapiens, 72 h, 3 days incubation with test compound, WST-8 OD 450/630 nm, read-out: IC50 (concentration inhibiting 50% of the cell growth)
# Summary of the method: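 Cells seeded in RPMI 1640 with 10% FBS and preincubated 24 h at 37 °C, 5% CO2, then exposed to compound for 3 days. IC50 (nM) from growth relative to untreated control.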
row,Structure (SMILES),IC50 [nM]
1,"Cc1c(OCC(F)(F)CO)ccc(C2=NNC(=O)C[C@H]2C)c1F [Example 120, (5R)-(−)-6-[4-(2,2-difluoro-3-hydroxypropoxy)-2-fluoro-3-methylphenyl]-5-methyl-4,5-dihydro-2H-pyridazin-3-one]",2.4
2,"C[C@@H]1CC(=O)NN=C1c1cc(F)c(OCCCO)c(F)c1 [Example 121, (5R)-(−)-6-[3,5-Difluoro-4-(3-hydroxypropoxy)phenyl]-5-methyl-4,5-dihydro-2H-pyridazin-3-one]",3.8
3,"C[C@@H]1CC(=O)NN=C1c1ccc(OCC(C)(C)CO)c(Cl)c1F [Example 122, (5R)-(−)-6-[3-Chloro-2-fluoro-4-(3-hydroxy-2,2-dimethylpropoxy)phenyl]-5-methyl-4,5-dihydro-2H-pyridazin-3-one]",4.1
4,"C[C@@H]1CC(=O)NN=C1c1ccc(OCC2(O)CC2)c(F)c1F [Example 123, (5R)-(−)-6-[2,3-Difluoro-4-[(1-hydroxycyclopropyl)methoxy]phenyl]-5-methyl-4,5-dihydro-2H-pyridazin-3-one]",3.3
5,"C[C@@H]1CC(=O)NN=C1c1ccc(OCC(C)(C)O)c(F)c1F [Example 124, (5R)-(−)-6-[2,3-difluoro-4-(2-hydroxy-2-methylpropoxy)phenyl]-5-methyl-4,5-dihydro-2H-pyridazin-3-one]",2.3
6,"Cc1cc(C2=NNC(=O)C[C@H]2C)cc(F)c1OCC(C)(C)CO [Example 125, (5R)-(−)-6-[3-fluoro-4-(3-hydroxy-2,2-dimethylpropoxy)-5-methylphenyl]-5-methyl-4,5-dihydro-2H-pyridazin-3-one]",1.5
7,"C[C@@H]1CC(=O)NN=C1c1ccc(OCCO)c(Cl)c1F [Example 126, (5R)-(−)-6-[3-Chloro-2-fluoro-4-(2-hydroxyethoxy)phenyl]-5-methyl-4,5-dihydro-2H-pyridazin-3-one]",2.9
8,"C[C@@H]1CC(=O)NN=C1c1cc(Cl)c(OCC(C)(C)CO)c(Br)c1 [Example 127, (5R)-(−)-6-[3-bromo-5-chloro-4-(3-hydroxy-2,2-dimethylpropoxy)phenyl]-5-methyl-4,5-dihydro-2H-pyridazin-3-one]",< 1
9,"Cc1cc(C2=NNC(=O)CC2C)c(O)c(Cl)c1OCC(C)(C)O (stereo not shown) [Example 129, 6-[3-Chloro-2-hydroxy-4-(2-hydroxy-2-methylpropoxy)-5-methylphenyl]-5-methyl-4,5-dihydro-2H-pyridazin-3-one]",3.6
10,"Cc1c(O)c(C2=NNC(=O)CC2C)cc(Cl)c1OCC(C)(C)O (stereo not shown) [Example 130, 6-[5-Chloro-2-hydroxy-4-(2-hydroxy-2-methylpropoxy)-3-methylphenyl]-5-methyl-4,5-dihydro-2H-pyridazin-3-one]",7
11,"CC1CC(=O)NN=C1c1cc(F)c(OCC(C)(C)O)c(Cl)c1F (stereo not shown) [Example 131, 6-[3-chloro-2,5-difluoro-4-(2-hydroxy-2-methylpropoxy)phenyl]-5-methyl-4,5-dihydro-2H-pyridazin-3-one]",1
12,"Cc1cc(C2=NNC(=O)CC2C)c(F)c(C)c1OCC(C)(C)O (stereo not shown) [Example 132, 6-[2-Fluoro-4-(2-hydroxy-2-methylpropoxy)-3,5-dimethylphenyl]-5-methyl-4,5-dihydro-2H-pyridazin-3-one]",3
13,"C=Cc1c(OCC(C)(C)O)ccc(C2=NNC(=O)CC2C)c1F (stereo not shown) [Example 133, 6-[2-Fluoro-4-(2-hydroxy-2-methylpropoxy)-3-vinylphenyl]-5-methyl-4,5-dihydro-2H-pyridazin-3-one]",3.4
14,"CCc1c(OCC(C)(C)O)ccc(C2=NNC(=O)CC2C)c1F (stereo not shown) [Example 134, 6-[3-Ethyl-2-fluoro-4-(2-hydroxy-2-methylpropoxy)phenyl]-5-methyl-4,5-dihydro-2H-pyridazin-3-one]",7.1
15,"C=Cc1c(OCCO)ccc(C2=NNC(=O)CC2C)c1F (stereo not shown) [Example 135, 6-[2-Fluoro-4-(2-hydroxyethoxy)-3-vinylphenyl]-5-methyl-4,5-dihydro-2H-pyridazin-3-one]",6.8
16,"Cc1c(F)c(C2=NNC(=O)CC2C)cc(Cl)c1OCC(C)(C)CO (stereo not shown) [Example 136, 6-[5-Chloro-2-fluoro-4-(3-hydroxy-2,2-dimethylpropoxy)-3-methylphenyl]-5-methyl-4,5-dihydro-2H-pyridazin-3-one]",5.2
17,"Cc1cc(C2=NNC(=O)CC2C)c(F)c(Cl)c1OCC(C)(C)CO (stereo not shown) [Example 137, 6-[3-chloro-2-fluoro-4-(3-hydroxy-2,2-dimethylpropoxy)-5-methylphenyl]-5-methyl-4,5-dihydro-2H-pyridazin-3-one]",< 1
18,"Cc1cc(C2=NNC(=O)CC2C)c(F)c(C)c1OCC(C)(C)CO (stereo not shown) [Example 138, 6-[2-Fluoro-4-(3-hydroxy-2,2-dimethylpropoxy)-3,5-dimethylphenyl]-5-methyl-4,5-dihydro-2H-pyridazin-3-one]",3.9
19,"CC1CC(=O)NN=C1c1cc(F)c(OCC(C)(C)CO)c(Cl)c1F (stereo not shown) [Example 139, 6-[3-Chloro-2,5-difluoro-4-(3-hydroxy-2,2-dimethylpropoxy)phenyl]-5-methyl-4,5-dihydro-2H-pyridazin-3-one]",2.7
20,"CC1CC(=O)NN=C1c1cc(F)c(OCCCO)c(Cl)c1F (stereo not shown) [Example 140, 6-[3-chloro-2,5-difluoro-4-(3-hydroxypropoxy)phenyl]-5-methyl-4,5-dihydro-2H-pyridazin-3-one]",2
21,"Cc1cc(C2=NNC(=O)CC2C)c(F)c(C)c1OCCCO (stereo not shown) [Example 141, 6-[2-Fluoro-4-(3-hydroxypropoxy)-3,5-dimethylphenyl]-5-methyl-4,5-dihydro-2H-pyridazin-3-one]",4.6
22,"Cc1cc(C2=NNC(=O)CC2C)cc(Cl)c1OCC(C)CO (stereo not shown) [Example 142, 6-[3-chloro-4-(3-hydroxy-2-methylpropoxy)-5-methylphenyl]-5-methyl-4,5-dihydro-2H-pyridazin-3-one]",1
23,"Cc1cc(C2=NNC(=O)CC2C)cc(Cl)c1OCCC(C)O (stereo not shown) [Example 143, 6-[3-Chloro-4-(3-hydroxybutoxy)-5-methylphenyl]-5-methyl-4,5-dihydro-2H-pyridazin-3-one]",6.9
24,"Cc1cc(C2=NNC(=O)CC2C)cc(Cl)c1OCC1(CO)CC1 (stereo not shown) [Example 144, 6-{3-Chloro-4-[1-(hydroxymethyl)cyclopropylmethoxy]-5-methylphenyl}-5-methyl-4,5-dihydro-2H-pyridazin-3-one]",4.2
25,"CC1CC(=O)NN=C1c1ccc(OCC2(CO)CC2)c(F)c1F (stereo not shown) [Example 145, 6-{2,3-Difluoro-4-[1-(hydroxymethyl)cyclopropylmethoxy]phenyl}-5-methyl-4,5-dihydro-2H-pyridazin-3-one]",7.1
26,"CC1CC(=O)NN=C1c1ccc(OCC(C)(C)CCO)c(Cl)c1O (stereo not shown) [Example 146, 6-[3-chloro-2-hydroxy-4-(4-hydroxy-2,2-dimethylbutoxy)phenyl]-5-methyl-4,5-dihydro-2H-pyridazin-3-one]",6.8
27,"Cc1c(F)c(C2=NNC(=O)CC2C)cc(Cl)c1OCC(C)O (stereo not shown) [Example 147, 6-[5-Chloro-2-fluoro-4-(2-hydroxypropoxy)-3-methylphenyl]-5-methyl-4,5-dihydro-2H-pyridazin-3-one]",7.6
28,"Cc1cc(C2=NNC(=O)CC2C)c(F)c(Cl)c1OCC(C)O (stereo not shown) [Example 148, 6-[3-Chloro-2-fluoro-4-(2-hydroxypropoxy)-5-methylphenyl]-5-methyl-4,5-dihydro-2H-pyridazin-3-one]",< 1

# From patent US10611731B2, “5-methyl-6-phenyl-4,5-dihydro-2H-pyridazin-3-one derivative” (OTSUKA PHARMACEUTICAL CO., LTD., priority 2016, dated 2020)
